Legend:
Assay type in all cases: in vitro ADME
CYP4F2 = target: T1, CYP4F2 (Homo sapiens, UniProt P78329); assay: Formation kinetics of M4 (carboxylic acid) from Compound-3 by CYP4F2; details: CYP4F2 10 nM, 10 min, uncompetitive substrate inhibition equation, estimated
T1 construct: purchased Corning Gentest
T1 sequence (P78329 5-520): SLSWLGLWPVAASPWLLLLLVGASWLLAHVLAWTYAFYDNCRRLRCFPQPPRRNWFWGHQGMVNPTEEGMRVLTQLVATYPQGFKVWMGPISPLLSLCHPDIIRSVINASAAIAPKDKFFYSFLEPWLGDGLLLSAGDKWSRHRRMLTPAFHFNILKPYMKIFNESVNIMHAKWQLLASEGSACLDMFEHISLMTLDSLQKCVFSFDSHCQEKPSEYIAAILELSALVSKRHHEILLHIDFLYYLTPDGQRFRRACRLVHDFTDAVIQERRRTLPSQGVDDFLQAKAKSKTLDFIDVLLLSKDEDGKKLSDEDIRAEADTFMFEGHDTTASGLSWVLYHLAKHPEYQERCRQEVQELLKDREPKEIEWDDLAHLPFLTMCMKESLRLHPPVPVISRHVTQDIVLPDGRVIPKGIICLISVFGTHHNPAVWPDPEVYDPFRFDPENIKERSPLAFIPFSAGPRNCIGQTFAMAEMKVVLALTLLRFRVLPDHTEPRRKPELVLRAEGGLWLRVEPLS
Description: To investigate the formation kinetics of carboxylic acid metabolite (M4) from Compound-3, varying concentrations of Compound-3 (0–10 µM) were incubated with 10 nM CYP4F2 and 1 mM NADPH in 100 mM phosphate buffer (pH 7.4). The reactions were carried at 37 °C for 10 min and terminated with the addition of ice-cold acetonitrile containing the internal standard. Samples were then centrifuged, and aliquots of 10 μL of the supernatants were analyzed by LC-MS/MS for M4 levels.
Kinetic parameters of Compound-3 in recombinant human CYP4F2 were calculated using Enzyme Kinetics Modules of SigmaPlot (Version 14.0, Systat Software, San Jose, CA, USA). An uncompetitive substrate inhibition equation was also used:V = (Vmax × [S])/{Km + [S] × (1 + [S]/Ki)}(2) where Ki is the disassociation constant describing the inhibitor-enzyme interaction.

[1] = Metabolite identification by UPLC/Triple TOF MS in rat liver microsomes; parameters: key: √: metabolites were detected by high-resolution mass spectrometry; details: Compound-3 10 μM, 1 mg/mL microsomes, NADPH, 60 min, HRMS
Description: (§1) For metabolite identification, a higher concentration of Compound-3 (10 μM) was incubated with liver microsomes (1 mg/mL) in the presence of NADPH (1 mM) and primary human hepatocytes at a density of 1 × 10^6 cell/mL. Samples were collected at 0 min and 60 min with the addition of ice-cold acetonitrile. After vortexing and centrifugation, the supernatant was transferred into a new tube and evaporated to dryness. The samples were then reconstituted in 100 μL of water and methanol (v/v, 9:1). An aliquot of 10 μL of reconstituted solution was injected into UPLC/Triple TOF 5600^+ MS for metabolite identification.
(§2) Identification of Compound-3 metabolites was carried out using Acquity UPLC/Triple TOF 5600^+ system. Chromatographic separation for Compound-3 and its metabolites were achieved by an Acquity UPLC HSS T3 column (100 × 2.1 mm i.d., […]; Waters Corp.) maintained at 40 °C. The mobile phase was a mixture of 0.02% formic acid in 5 mM ammonium acetate (A) and methanol (B). The gradient elution was started from 2% B and maintained for 4 min, then increased linearly to 75% B over the next 4 min and maintained for 8 min. […] The flow rate was 0.4 mL/min and the eluent was monitored by UV detection at 280 nm.
(§3) For mass detection, a Triple TOF 5600^+ mass spectrometer (AB Sciex, Framingham, MA, USA) was operated in positive ion electrospray (ES-positive) mode with the source temperature at 500 °C and scan range from m/z 100 to 1000 Da. Other parameters were set as follows: ion spray voltage, 5500 V; decluttering potential, 80 V; curtain gas, 40 psi; ion source gas 1, 55 psi; and ion source gas 2, 50 psi. Collision energies of 25 and 65 eV were used for TOF MS and product ion scans, respectively, and a collision energy spread of 20 was used in the MS/MS analysis. Information-dependent acquisition (IDA), together with real-time multiple mass defect filter, was used to trigger acquisition of MS/MS spectra.

[2] = Metabolite identification by UPLC/Triple TOF MS in human hepatocytes; parameters: key: √: metabolites were detected by high-resolution mass spectrometry; details: Compound-3 10 μM, 1 × 10^6 cell/mL, 60 min, HRMS
Description: as §1, §2, §3

Stability in rat plasma = details: 1 μM, 37 °C
Description: For stability testing in plasma, the reaction was started with the addition of Compound-3 (1 µM). At specified time points, aliquots of 25 µL of the reaction mixtures were transferred into 100 μL ice-cold acetonitrile containing the internal standard. The samples were then centrifuged, and aliquots of 10 µL of the supernatants were transferred onto LC-MS/MS for the analysis of Compound-3 levels.

alkaline phosphatase = assay: Hydrolysis of Compound-3 by alkaline phosphatase (gemcitabine formation); parameters: key to detected in matrix ALP: √: metabolites were detected by high-resolution mass spectrometry
Description: Compound-3 was incubated with alkaline phosphatase, and the linearity of gemcitabine formation as a function of time and protein concentration was first examined. The reaction mixtures consisted of alkaline phosphatase, 100 mM phosphate buffer (pH 7.4) and Compound-3 (10 μM). The final volume of the incubation mixture was 200 μL. The mixture was warmed up at 37 °C for 2 min prior to the initiation of the reaction with the addition of the enzyme. At specified time points, 25 μL of the incubation mixtures was added to 100 μL cold acetonitrile containing the internal standard to terminate the reaction. Levels of gemcitabine were determined by LC-MS/MS. […] Compound-3 was tested at concentrations ranging from 0 to 200 μM. Kinetic parameters of Compound-3 in alkaline phosphatase were calculated using GraphPad Prism (Version 6.0, GraphPad Software Inc., San Diego, CA) and nonlinear regression analysis. Equation used was as the following (the Michaelis-Menten equation):V = (Vmax × [S])/(Km + [S])(1) where V is the rate of metabolite formation, Vmax is the maximum velocity, Km is the Michaelis constant (substrate concentration at 0.5 Vmax), and [S] is the substrate concentration.

[3] = alkaline phosphatase 0.1 mg/mL protein, 60 min, 37 °C, Michaelis-Menten

SMILES: CCCCCCCCCCCCCCCCCCOCCOP(=O)(O)OCC1OC(n2ccc(N)nc2=O)C(F)(F)C1O (stereo not shown) [Compound-3]
- Ki (CYP4F2): 1.2 nM
- detected in matrix RLM [1]: √
- detected in matrix Human Hepatocytes [2]: √
- disappearance in plasma (Stability in rat plasma): did not display noticeable disappearance
- Km (alkaline phosphatase; [3]): 57.2 µM
- Vmax of gemcitabine formation (alkaline phosphatase; [3]): 60.8 pmol/min/mg-protein
- detected in matrix ALP (alkaline phosphatase; incubation of Compound-3 with alkaline phosphatase, HRMS): √

Source: publication PMC6100113, “Involvement of CYP4F2 in the Metabolism of a Novel Monophosphate Ester Prodrug of Gemcitabine and Its Interaction Potential In Vitro” (Molecules : A Journal of Synthetic Chemistry and Natural …, 2018)
